The supplement of paper PMC10307832

Experiments:
Assay in all cases: relative viability (nuclei count vs DMSO), 5 days (fraction); higher = more cells survive
NCI-H1355 = test system: NCI-H1355
Procedure, shortened: (§1)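 Medians of duplicate plates are given as relative viability. That measure is the nuclei count in treated wells divided by the count in vehicle wells. Counts were taken on 4× images of lung cancer cell lines in 1536-well plates, 5 days after pin-tool dosing the day after seeding with one drug alone or a fixed anchor-drug dose plus five library-drug doses (not always all listed) in √10 steps.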

NCI-H650 = test system: NCI-H650
Procedure, shortened: as §1

PC-3 [JPC-3] = test system: PC-3 [JPC-3]
Procedure, shortened: as §1

NCI-H358 = test system: NCI-H358
Procedure, shortened: as §1

SK-MES-1 = test system: SK-MES-1
Procedure, shortened: as §1

BEN = test system: BEN
Procedure, shortened: as §1

LU99A = test system: LU99A
Procedure, shortened: as §1

NCI-H661 = test system: NCI-H661
Procedure, shortened: as §1

NCI-H1975 = test system: NCI-H1975
Procedure, shortened: as §1

NCI-H596 = test system: NCI-H596
Procedure, shortened: as §1

NCI-H1666 = test system: NCI-H1666
Procedure, shortened: as §1

NCI-H1944 = test system: NCI-H1944
Procedure, shortened: as §1

LXF-289 = test system: LXF-289
Procedure, shortened: as §1

LCLC-97TM1 = test system: LCLC-97TM1
Procedure, shortened: as §1

NCI-H2342 = test system: NCI-H2342
Procedure, shortened: as §1

NCI-H1651 = test system: NCI-H1651
Procedure, shortened: as §1

LK-2 = test system: LK-2
Procedure, shortened: as §1

NCI-H2087 = test system: NCI-H2087
Procedure, shortened: as §1

HCC-78 = test system: HCC-78
Procedure, shortened: as §1

LC-2-ad = test system: LC-2-ad
Procedure, shortened: as §1

ChaGo-K-1 = test system: ChaGo-K-1
Procedure, shortened: as §1

NCI-H838 = test system: NCI-H838
Procedure, shortened: as §1

CC(=O)O[C@@]12CO[C@@H]1C[C@H](O)[C@@]1(C)C(=O)[C@H](O)C3=C(C)[C@@H](OC(=O)[C@H](O)[C@@H](NC(=O)OC(C)(C)C)c4ccccc4)C[C@@](O)([C@@H](OC(=O)c4ccccc4)[C@H]21)C3(C)C [Docetaxel] + CC(=O)Nc1cccc(-n2c(=O)n(C3CC3)c(=O)c3c(Nc4ccc(I)cc4F)n(C)c(=O)c(C)c32)c1 [Trametinib] (partner 0.02 µM)
relative viability (NCI-H1355; first compound 0.0002 µM): 0.384
relative viability (NCI-H1355; first compound 0.000632 µM): 0.441
relative viability (NCI-H1355; first compound 0.002 µM): 0.262
relative viability (NCI-H1355; first compound 0.006325 µM): 0.26
relative viability (NCI-H1355; first compound 0.02 µM): 0.183
relative viability (NCI-H650; first compound 0.0002 µM): 0.932
relative viability (NCI-H650; first compound 0.000632 µM): 0.644
relative viability (NCI-H650; first compound 0.002 µM): 0.318
relative viability (NCI-H650; first compound 0.006325 µM): 0.295
relative viability (NCI-H650; first compound 0.02 µM): 0.16
relative viability (PC-3 [JPC-3]; first compound 0.0002 µM): 0.684
relative viability (PC-3 [JPC-3]; first compound 0.000632 µM): 0.701
relative viability (PC-3 [JPC-3]; first compound 0.002 µM): 0.604
relative viability (PC-3 [JPC-3]; first compound 0.006325 µM): 0.431
relative viability (PC-3 [JPC-3]; first compound 0.02 µM): 0.279
relative viability (NCI-H358; first compound 0.0002 µM): 0.167
relative viability (NCI-H358; first compound 0.000632 µM): 0.138
relative viability (NCI-H358; first compound 0.002 µM): 0.124
relative viability (NCI-H358; first compound 0.006325 µM): 0.0884
relative viability (NCI-H358; first compound 0.02 µM): 0.083
relative viability (SK-MES-1; first compound 0.0002 µM): 0.63
relative viability (SK-MES-1; first compound 0.000632 µM): 0.758
relative viability (SK-MES-1; first compound 0.002 µM): 0.436
relative viability (SK-MES-1; first compound 0.006325 µM): 0.313
relative viability (SK-MES-1; first compound 0.02 µM): 0.185
relative viability (BEN; first compound 0.0002 µM): 1.08
relative viability (BEN; first compound 0.000632 µM): 1.04
relative viability (BEN; first compound 0.002 µM): 0.763
relative viability (BEN; first compound 0.006325 µM): 0.419
relative viability (BEN; first compound 0.02 µM): 0.322
relative viability (LU99A; first compound 0.0002 µM): 0.53
relative viability (LU99A; first compound 0.000632 µM): 0.561
relative viability (LU99A; first compound 0.002 µM): 0.346
relative viability (LU99A; first compound 0.006325 µM): 0.3
relative viability (NCI-H661; first compound 0.0002 µM): 0.53
relative viability (NCI-H661; first compound 0.000632 µM): 0.611
relative viability (NCI-H661; first compound 0.002 µM): 0.568
relative viability (NCI-H661; first compound 0.006325 µM): 0.371
relative viability (NCI-H661; first compound 0.02 µM): 0.347
relative viability (NCI-H1975; first compound 0.0002 µM): 0.386
relative viability (NCI-H1975; first compound 0.000632 µM): 0.263
relative viability (NCI-H1975; first compound 0.002 µM): 0.241
relative viability (NCI-H1975; first compound 0.006325 µM): 0.167
relative viability (NCI-H1975; first compound 0.02 µM): 0.148
relative viability (NCI-H596; first compound 0.0002 µM): 0.807
relative viability (NCI-H596; first compound 0.000632 µM): 0.997
relative viability (NCI-H596; first compound 0.002 µM): 0.642
relative viability (NCI-H596; first compound 0.006325 µM): 0.555
relative viability (NCI-H596; first compound 0.02 µM): 0.277
relative viability (NCI-H1666; first compound 0.0002 µM): 0.846
relative viability (NCI-H1666; first compound 0.000632 µM): 0.695
relative viability (NCI-H1666; first compound 0.002 µM): 0.645
relative viability (NCI-H1666; first compound 0.006325 µM): 0.771
relative viability (NCI-H1666; first compound 0.02 µM): 0.521
relative viability (NCI-H1944; first compound 0.0002 µM): 0.387
relative viability (NCI-H1944; first compound 0.000632 µM): 0.371
relative viability (NCI-H1944; first compound 0.002 µM): 0.294
relative viability (NCI-H1944; first compound 0.006325 µM): 0.241
relative viability (NCI-H1944; first compound 0.02 µM): 0.118
relative viability (LXF-289; first compound 0.0002 µM): 0.648
relative viability (LXF-289; first compound 0.000632 µM): 0.673
relative viability (LXF-289; first compound 0.002 µM): 0.335
relative viability (LXF-289; first compound 0.006325 µM): 0.18
relative viability (LXF-289; first compound 0.02 µM): 0.109
relative viability (LCLC-97TM1; first compound 0.0002 µM): 0.171
relative viability (LCLC-97TM1; first compound 0.000632 µM): 0.195
relative viability (LCLC-97TM1; first compound 0.002 µM): 0.148
relative viability (LCLC-97TM1; first compound 0.006325 µM): 0.108
relative viability (LCLC-97TM1; first compound 0.02 µM): 0.08
relative viability (NCI-H2342; first compound 0.0002 µM): 0.898
relative viability (NCI-H2342; first compound 0.000632 µM): 0.836
relative viability (NCI-H2342; first compound 0.002 µM): 0.567
relative viability (NCI-H2342; first compound 0.006325 µM): 0.672
relative viability (NCI-H2342; first compound 0.02 µM): 0.483
relative viability (NCI-H1651; first compound 0.0002 µM): 0.843
relative viability (NCI-H1651; first compound 0.000632 µM): 0.83
relative viability (NCI-H1651; first compound 0.002 µM): 0.586
relative viability (NCI-H1651; first compound 0.006325 µM): 0.268
relative viability (LK-2; first compound 0.0002 µM): 0.683
relative viability (LK-2; first compound 0.000632 µM): 0.528
relative viability (LK-2; first compound 0.002 µM): 0.304
relative viability (LK-2; first compound 0.006325 µM): 0.187
relative viability (LK-2; first compound 0.02 µM): 0.136
relative viability (NCI-H2087; first compound 0.0002 µM): 0.159
relative viability (NCI-H2087; first compound 0.000632 µM): 0.208
relative viability (NCI-H2087; first compound 0.002 µM): 0.181
relative viability (NCI-H2087; first compound 0.006325 µM): 0.118
relative viability (NCI-H2087; first compound 0.02 µM): 0.0893
relative viability (HCC-78; first compound 0.0002 µM): 0.751
relative viability (HCC-78; first compound 0.000632 µM): 0.73
relative viability (HCC-78; first compound 0.002 µM): 0.502
relative viability (HCC-78; first compound 0.006325 µM): 0.446
relative viability (HCC-78; first compound 0.02 µM): 0.371
relative viability (LC-2-ad; first compound 0.0002 µM): 0.886
relative viability (LC-2-ad; first compound 0.000632 µM): 0.737
relative viability (LC-2-ad; first compound 0.002 µM): 0.345
relative viability (LC-2-ad; first compound 0.006325 µM): 0.297
relative viability (LC-2-ad; first compound 0.02 µM): 0.226
relative viability (ChaGo-K-1; first compound 0.0002 µM): 0.871
relative viability (ChaGo-K-1; first compound 0.000632 µM): 0.815
relative viability (ChaGo-K-1; first compound 0.002 µM): 0.443
relative viability (ChaGo-K-1; first compound 0.006325 µM): 0.323
relative viability (ChaGo-K-1; first compound 0.02 µM): 0.157
relative viability (NCI-H838; first compound 0.0002 µM): 0.456
relative viability (NCI-H838; first compound 0.000632 µM): 0.638
relative viability (NCI-H838; first compound 0.002 µM): 0.183
relative viability (NCI-H838; first compound 0.006325 µM): 0.141
relative viability (NCI-H838; first compound 0.02 µM): 0.0997
